Experimental data published in patent US7115657B2, “Bifunctional agents possessing antioxidant and antiarrhythmic activity” (Uni-Pharma Kleon Tsetis Pharmaceutical Laboratories S.A., priority 2000, dated 2006).

Legend:
[1] = system: microsomal lipid peroxidation; assay: in vitro lipid peroxidation, heat-inactivated hepatic microsomal fraction, Fe2+/ascorbate, TBA reactive material; format: biochemical, Fischer rats
Procedure: The antioxidant activity of the new compounds was initially evaluated as set forth below. in vitro lipid peroxidation (Bationi J. P., Fontecave M., Jaouen M., Mansuy D. “Vitamin E derivatives as new potent inhibitors of microsomal lipid peroxidation” Biochem. Biophys. Res. Com. 1991, 174, 1103)
For these experiments, heat-inactivated hepatic microsomal fraction from untreated Fischer rats (200–220 g), corresponding to 0.125 g liver/ml final volume, was used. The incubation mixture contained the microsomal fraction, ascorbic acid (0.2 mM), in Tris buffer (50 mM, pH 7.4) and various concentrations (5 μM–1 mM) of the examined compounds dissolved in DMSO. The lipid peroxidation reaction was initiated with the addition of a freshly prepared FeSO4 solution (10 μM) and aliquots were taken at various time intervals for 45 min. Lipid peroxidation was estimated spectroscopically (535 nm vs. 600 nm) as 2-thiobarbitouric acid (TBA) reactive material. Each experiment was performed at least in triplicate.
The effect of various concentrations of representative compounds of the present invention on lipid peroxidation is shown in Table 1. […] However, there are quantitative differences that appear to be connected with the position of the amide substituent and the length of the side chain.

[2] = system: isolated heart preparations; assay: antiarrhythmic activity on isolated heart preparations, Krebs perfused Langerdorff model of ischemia and reperfusion; parameters: species or system Male Wistar rats; unit not given here; settings: drug present during last 5 min of ischemia and during reperfusion, control (no drug) 12 ± 4
Procedure: The evaluation of the antiarrhythmic activity of the compounds set forth above was carried out on isolated heart preparations using the Krebs perfused Langerdorff model (Heisier B. E., Ferrier G. R. “Proarrhythmic actions of flecainide in an isolated tissue model of ischemia and reperfusion” J. Pharmacol. Exp. Ther. 1996, 279, 317). Male Wistar rats, 250–300 g, were anesthetized with pentobarbitone (15 mg/rat=5 mg/100 g body weight) and heparinized (1000 IU)
Hearts were excised and washed in ice cold modified Krebs-Henseleit (KHB) buffer of the following composition in Mm: NaCl 118, KCl 4.7, NaHCO3 25, KH2PO4 1.2, MgSO4 1.4, CaCl2 2.5, Glucose 11. Hearts were mounted on a Langerdorff apparatus, perfused at a pressure 100 mmHg, at 37° C., with KHB (9 ml/min) for 30–40 min and then the “ischemic” KHB solution was applied for 15 min (this solution is a KH buffer in which the glucose is substituted by Tris HCl. The hearts were then perfused with normal KHB for 30 min. Drugs were present during the last 5 min of ischemia and during reperfusion at the final concentration of 30 or 100 μM.
Electrocardiograms were recorded during equilibration, ischemia and reperfusion.
The most important arrhythmias seem to occur during early reperfusion (Li G-R., Ferrier G. R. “Effects of lidocaine on reperfusion arrhythmias and electrophysiological properties in an isolated ventricular muscle model of ischemia and reperfusion” J. Pharmacol. Exp. Ther. 1991, 257, 997).

Compound | % Inhibition ([1]; compound concentration 10 μM) [%] | % Inhibition ([1]; compound concentration 50 μM) [%] | other results
CCN(CC)CCNC(=O)C1(C)CCc2c(C)c(O)c(C)c(C)c2O1 (stereo not shown) [Compound a, N-(3,4-dihydro-6-hydroxy-2,5,7,8-tetramethyl-2H-1-benzopyran-2-carbonyl)-N′,N′-diethyl Ethylenediamine] | 96.3 | – | Incidence of arrhythmias during the reperfusion period ([2]; 30 μM): 7 ± 3.5; Incidence of arrhythmias during the reperfusion period ([2]; 100 μM): 5 ± 2
Cc1c(C)c2c(c(C)c1O)CCC(C)(C(=O)O)O2 (stereo not shown) [Trolox, reference compound] | 49 | – | –
CCCCCCC1(C(=O)NCCN(CC)CC)CCc2c(C)c(O)c(C)c(C)c2O1 (stereo not shown) [b, N-(3,4-dihydro-2-hexyl-6-hydroxy-5,7,8-trimethyl-2H-1-benzopyran-2-carbonyl)-N′,N′-diethyl Ethylenediamine] | 7.7 | 91 | –
CCCCCCCCCCCCC1(C(=O)NCCN(CC)CC)CCc2c(C)c(O)c(C)c(C)c2O1 (stereo not shown) [c, N-(3,4-dihydro-2-dodecyl-6-hydroxy-5,7,8-trimethyl-2H-1-benzopyran-2-carbonyl)-N′,N′-diethyl Ethylenediamine] | – | – | % Inhibition ([1]; compound concentration 200 μM): 0%; % Inhibition ([1]; compound concentration 400 μM): 48.6%; % Inhibition ([1]; compound concentration 500 μM): 93.8%
CCN(CC)CCNC(=O)c1c(O)c(C)c(C)c2c1CCC(C)(C)O2 [d, N-(3,4-dihydro-6-hydroxy-2,2,7,8-tetramethyl-2H-1-benzopyran-5-carbonyl)-N′,N′-diethyl Ethylenediamine] | 38.4 | 98.1 | –
CCCCCCC1(C)CCc2c(c(C)c(C)c(O)c2C(=O)NCCN(CC)CC)O1 (stereo not shown) [e, N-(3,4-dihydro-2-hexyl-6-hydroxy-2,7,8-trimethyl-2H-1-benzopyran-5-carbonyl)-N′,N′-diethyl Ethylenediamine] | – | 87.4 | –
CCCCCCCCCCCCC1(C)CCc2c(c(C)c(C)c(O)c2C(=O)NCCN(CC)CC)O1 (stereo not shown) [f, N-(3,4-dihydro-2-dodecyl-6-hydroxy-2,7,8-trimethyl-2H-1-benzopyran-5-carbonyl)-N′,N′-diethyl Ethylenediamine] | – | 0 | % Inhibition ([1]; compound concentration 1000 μM): 100%
CCN(CC)CC(=O)Nc1c(O)c(C)c(C)c2c1CCC(C)(C)O2 [g, N-(3,4-dihydro-6-hydroxy-2,2,7,8-tetramethyl-2H-1-benzopyran-5-yl)-(diethylamino)acetamide] | 100 | – | % Inhibition ([1]; compound concentration 5 μM): 72.4%; Incidence of arrhythmias during the reperfusion period ([2]; 30 μM): 8 ± 2.1; Incidence of arrhythmias during the reperfusion period ([2]; 100 μM): 7 ± 2
CCCCCCC1(C)CCc2c(NC(=O)CN(CC)CC)c(O)c(C)c(C)c2O1 (stereo not shown) [h, N-(3,4-dihydro-2-hexyl-6-hydroxy-2,7,8-trimethyl-2H-1-benzopyran-5-yl)-(diethylamino)acetamide] | 100 | – | % Inhibition ([1]; compound concentration 5 μM): 17.4%; Incidence of arrhythmias during the reperfusion period ([2]; 30 μM): 6 ± 3; Incidence of arrhythmias during the reperfusion period ([2]; 100 μM): 6 ± 2.5
CCN(CC)CC(=O)NC1CC(C)(C)Oc2c(C)c(C)c(O)c(C)c21 (stereo not shown) [i, N-(3,4-dihydro-6-hydroxy-2,2,5,7,8-pentamethyl-2H-1-benzopyran-4-yl)-(diethylamino)acetamide] | – | 98.6 | –
CCCCCCC1(C)CC(NC(=O)CN(CC)CC)c2c(C)c(O)c(C)c(C)c2O1 (stereo not shown) [j, N-(3,4-dihydro-2-hexyl-6-hydroxy-2,5,7,8-tetramethyl-2H-1-benzopyran-4-yl)-(diethylamino)acetamide] | – | 96.1 | –
Vitamin E [reference compound] | 21 | – | –
